Laboratory results as given in US12351656B2, “Functionalized and crosslinked polymers” (PMIDG, LLC, priority 2017, dated 2025).
Where a name gives a salt, the structure may show the parent alone.

Key:
[1] = Vancomycin hydrochloride release from FeCl3-crosslinked gels (HPLC); format: physicochemical; settings: FeCl3-crosslinked 4% (w/v) gel, vancomycin hydrochloride 10% (w/w), PBS pH 7.4, 37° C.
Description: Sodium hyaluronate (1.4 m3/kg, approx. 800 kDa) and HA derivatives comprising mercaptosuccinic acid and thiophenol, as described in Example 59 and 60 were diluted to 4% (w/v) concentrations in deionized water and mixed with vancomycin hydrochloride (Sigma Aldrich PHR1732) at 10% (w/w) loading. The polymers were crosslinked using the addition of 2% FeCl3 solution (crosslinking agent) in deionized water for 1:1 linking of carboxyl groups of sodium hyaluronate and chloride of FeCl3 and pH of the gels was adjusted to 6.5-7.5 using 0.25M NaOH solution. The release study buffer applied to each sample consisted of phosphate buffered saline (pH 7.4, Sigma P3813). […] For each timepoint, 0.25 ml of the sample was combined with 5 ml H2O and then filtered through a 0.45 μm filter prior to analyzing using HPLC with a C18 column and 85:15 phosphate buffer (pH 3.0):methanol as mobile phase at 0.8 ml/min flow rate. The chromatogram was collected using a photodiode array detector at 205 nm and the amount of vancomycin hydrochloride released was calculated from integral value of peak at the retention time of 11.3 minutes based on calibration performed previously.

[2] = Bupivacaine release from FeCl3-crosslinked gels (HPLC); format: physicochemical; settings: FeCl3-crosslinked 4% (w/v) gel with bupivacaine hydrochloride monohydrate, 2% SDS in PBS pH 7.4, 37° C.
Description: Sodium hyaluronate (1.4 m3/kg, approx. 800 kDa) and HA derivatives comprising mercaptosuccinic acid and thiophenol, as described in Example 60 and 61, were diluted to 4% (w/v) concentrations in deionized water and mixed with bupivacaine hydrochloride monohydrate (Sigma Aldrich B5274). The polymers were crosslinked using the addition of 2% FeCl3 solution in deionized water for 1:1 linking of carboxyl groups of sodium hyaluronate and chloride of FeCl3 and pH of the gels was adjusted to 6.5-7.5 using 0.25M NaOH solution. The release study buffer applied to each sample consisted of 2% (w/v) sodium dodecyl sulfate (SDS) dissolved in Phosphate buffered saline (pH 7.4, Sigma P3813). All samples were incubated at 37° C. and sampled for testing over 96 hours. For each timepoint, 0.25 ml of the sample was combined with 5 ml MeOH and then filtered through a 0.45 μm filter prior to analyzing using HPLC with a C18 column and 30:70 phosphate buffer (pH 5.0):methanol as mobile phase at 0.6 ml/min flow rate. The chromatogram was collected using a photodiode array detector at 205 nm and the amount of bupivacaine released was calculated from integral value of peak at the retention time of 7.1 minutes based on calibration performed previously.

Structure (SMILES)	% Vancomycin Hydrochloride Release ([1]; 0 hours) [%]	% Vancomycin Hydrochloride Release ([1]; 1 hour) [%]	% Vancomycin Hydrochloride Release ([1]; 3 hours) [%]	% Vancomycin Hydrochloride Release ([1]; 6 hours) [%]	% Vancomycin Hydrochloride Release ([1]; 24 hours) [%]	% Vancomycin Hydrochloride Release ([1]; 96 hours) [%]	% Bupivacaine Released ([2]; 0 hours) [%]	% Bupivacaine Released ([2]; 1 hour) [%]	% Bupivacaine Released ([2]; 3 hours) [%]	% Bupivacaine Released ([2]; 6 hours) [%]	% Bupivacaine Released ([2]; 24 hours) [%]
CN[C@H](CC(C)C)C(=O)N[C@H]1C(=O)N[C@@H](CC(N)=O)C(=O)N[C@H]2C(=O)N[C@H]3C(=O)N[C@H](C(=O)N[C@H](C(=O)O)c4cc(O)cc(O)c4-c4cc3ccc4O)[C@H](O)c3ccc(c(Cl)c3)Oc3cc2cc(c3O[C@@H]2O[C@H](CO)[C@@H](O)[C@H](O)[C@H]2O[C@H]2C[C@](C)(N)[C@H](O)[C@H](C)O2)Oc2ccc(cc2Cl)[C@H]1O [Vancomycin, vancomycin hydrochloride]	0.00	98.03	95.40	92.08	90.70	72.11					
CCCCN1CCCCC1C(=O)Nc1c(C)cccc1C (centres unmarked) [Bupivacaine, bupivacaine hydrochloride monohydrate]							0.00	72.54	70.10	71.43	83.46
